Test results reported in the NIST ThermoML archive (doi:10.1016/j.fluid.2007.04.009).
Numbers after ± are expanded uncertainties.

Legend:
[1] = 298.15 K; for surface tension liquid-gas: Pendant drop shape; for mass density: 101.33 kPa, Liquid
[2] = refractive index (Na D-line) (dimensionless); details: 298.15 K; 101.33 kPa; Liquid; Standard Abbe refractometry
[3] = xn = mol fraction of the nth substance listed; details: 298.15 K; for surface tension liquid-gas: Pendant drop shape; for mass density: 101.3 kPa, Liquid

`CCOC(C)(C)C` [2-ethoxy-2-methylpropane] gave a surface tension liquid-gas [1] of 19.73 ± 0.23 mN/m, a mass density [1] of 735.44 ± 0.35 kg/m3 and a refractive index [2] of 1.37319 ± 0.00072.

`CCOC(C)(C)C` [2-ethoxy-2-methylpropane] + CCCO gave a surface tension liquid-gas ([3]; x1 = 0.067) of 23.58 ± 0.26 mN/m, a surface tension liquid-gas ([3]; x1 = 0.171) of 22.81 ± 0.25 mN/m and a surface tension liquid-gas ([3]; x1 = 0.315) of 22.12 ± 0.25 mN/m. For the same molecule, the surface tension liquid-gas ([3]; x1 = 0.412) was 21.48 ± 0.24 mN/m, the surface tension liquid-gas ([3]; x1 = 0.579) was 20.81 ± 0.24 mN/m and the surface tension liquid-gas ([3]; x1 = 0.763) was 20.25 ± 0.23 mN/m. It also gave a mass density ([3]; x1 = 0.0572) of 795.04 ± 0.27 kg/m3, a mass density ([3]; x1 = 0.1043) of 791.43 ± 0.27 kg/m3 and a mass density ([3]; x1 = 0.1752) of 786.11 ± 0.28 kg/m3. It also gave a mass density ([3]; x1 = 0.2085) of 783.67 ± 0.27 kg/m3, a mass density ([3]; x1 = 0.27) of 779.29 ± 0.28 kg/m3 and a mass density ([3]; x1 = 0.3317) of 775.03 ± 0.28 kg/m3. The mass density ([3]; x1 = 0.3732) was 772.24 ± 0.28 kg/m3, the mass density ([3]; x1 = 0.4205) was 769.2 ± 0.28 kg/m3 and the mass density ([3]; x1 = 0.4756) was 765.72 ± 0.28 kg/m3. It also gave a mass density ([3]; x1 = 0.5326) of 762.15 ± 0.28 kg/m3, a mass density ([3]; x1 = 0.5639) of 760.27 ± 0.28 kg/m3 and a mass density ([3]; x1 = 0.621) of 756.93 ± 0.28 kg/m3. It also gave a mass density ([3]; x1 = 0.682) of 753.59 ± 0.28 kg/m3, a mass density ([3]; x1 = 0.7188) of 751.55 ± 0.28 kg/m3 and a mass density ([3]; x1 = 0.7551) of 749.37 ± 0.28 kg/m3. For the same molecule, the mass density ([3]; x1 = 0.8334) was 745.06 ± 0.29 kg/m3, the mass density ([3]; x1 = 0.8737) was 742.66 ± 0.29 kg/m3 and the mass density ([3]; x1 = 0.9142) was 740.45 ± 0.29 kg/m3. The mass density ([3]; x1 = 0.9567) was 737.98 ± 0.29 kg/m3.

Work on `CCCO` [propan-1-ol] yielded a surface tension liquid-gas [1] of 23.89 ± 0.26 mN/m, a mass density [1] of 799.49 ± 0.29 kg/m3 and a refractive index [2] of 1.38333 ± 0.00072.
